Where only a bound is given, the exact number is not on record here.

Test [1] deals with T1, WRN [UniPro: Q14191 (WRN_HUMAN), N500-C946] (Homo sapiens (Human), UniProt Q14191). In words: WRN unwinding assay (FORKF DNA, fluorescence). The test is classed as biochemical. Conditions: Table 14.
The target in test [2] is T1, WRN [UniPro: Q14191 (WRN_HUMAN), N500-C946]. As to the kind of experiment: WRN ATPase assay (ADP-Glo). The test is classed as biochemical. Conditions: WRN enzymatic activity assay.

T1 sequence (Q14191 500-946): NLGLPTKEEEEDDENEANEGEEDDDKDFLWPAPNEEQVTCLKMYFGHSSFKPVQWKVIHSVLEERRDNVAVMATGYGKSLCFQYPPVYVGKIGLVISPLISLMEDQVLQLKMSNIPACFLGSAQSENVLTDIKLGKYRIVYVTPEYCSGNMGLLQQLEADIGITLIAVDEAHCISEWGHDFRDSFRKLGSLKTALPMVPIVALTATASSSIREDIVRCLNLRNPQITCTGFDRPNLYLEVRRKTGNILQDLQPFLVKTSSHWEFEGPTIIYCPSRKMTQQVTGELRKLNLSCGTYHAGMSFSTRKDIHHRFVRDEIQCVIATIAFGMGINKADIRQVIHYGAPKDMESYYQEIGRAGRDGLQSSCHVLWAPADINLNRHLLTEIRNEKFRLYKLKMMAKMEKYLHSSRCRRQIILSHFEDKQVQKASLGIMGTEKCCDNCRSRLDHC

Consider `CCc1c(N2CCN(C(=O)CNC(=O)c3ncnc(C)c3O)CC2)c(=O)n2nc(N3CCOCC3)nc2n1CC(=O)Nc1ccc(C(F)(F)F)cc1Cl` [Example 377, N-(2-(4-(4-(2-((2-Chloro-4-(trifluoromethyl)phenyl)amino)-2-oxoethyl)-5-ethyl-2-morpholino-7-oxo-4,7-dihydro-[1,2,4]triazolo[1,5-a]pyrimidin-6-yl)piperazin-1-yl)-2-oxoethyl)-5-hydroxy-6-methylpyrimidine-4-carboxamide], for which the IC50 in test [1] and in test [2] was less than 100 nM in each case.
For `CCc1c(N2CCN(C(=O)C(=O)Nc3nccs3)CC2)c(=O)n2nc(N3CCOCC3)nc2n1CC(=O)Nc1ccc(C(F)(F)F)cc1Cl` [Example 258, 2-(4-(4-(2-((2-Chloro-4-(trifluoromethyl)phenyl)amino)-2-oxoethyl)-5-ethyl-2-morpholino-7-oxo-4,7-dihydro-[1,2,4]triazolo[1,5-a]pyrimidin-6-yl)piperazin-1-yl)-2-oxo-N-(thiazol-2-yl)acetamide], the IC50 in test [1] and in test [2] was less than 100 nM throughout.
On to `CCc1c(N2CCN(C(=O)CNC(=O)c3c(O)cc(C)oc3=O)CC2)c(=O)n2nc(C3=CCOCC3)nc2n1CC(=O)Nc1ccc(C(F)(F)F)cc1Cl` [Example 295, N-(2-(4-(4-(2-((2-Chloro-4-(trifluoromethyl)phenyl)amino)-2-oxoethyl)-2-(3,6-dihydro-2H-pyran-4-yl)-5-ethyl-7-oxo-4,7-dihydro-[1,2,4]triazolo[1,5-a]pyrimidin-6-yl)piperazin-1-yl)-2-oxoethyl)-4-hydroxy-6-methyl-2-oxo-2H-pyran-3-carboxamide], for which the results for the IC50 in test [1] and in test [2] were greater than 1000 nM and 100 to 1000 nM, respectively.
In the case of `CCc1c(N2CCN(C(=O)c3ncsc3N)CC2)c(=O)n2nc(C3=CCOCC3)nc2n1CC(=O)Nc1ccc(C(F)(F)F)cc1Cl` [Example 32, 2-(6-(4-(5-Aminothiazole-4-carbonyl)piperazin-1-yl)-2-(3,6-dihydro-2H-pyran-4-yl)-5-ethyl-7-oxo-[1,2,4]triazolo[1,5-a]pyrimidin-4(7H)-yl)-N-(2-chloro-4-(trifluoromethyl)phenyl)acetamide], the IC50 was less than 100 nM in test [1] and 100 to 1000 nM in test [2].
Consider `CCc1c(N2CCN(C(=O)CNC(=O)c3nc(C)ncc3O)CC2)c(=O)n2nc(C3=CCOCC3)nc2n1CC(=O)Nc1ccc(C(F)(F)F)cc1Cl` [Example 368, N-(2-(4-(4-(2-((2-Chloro-4-(trifluoromethyl)phenyl)amino)-2-oxoethyl)-2-(3,6-dihydro-2H-pyran-4-yl)-5-ethyl-7-oxo-4,7-dihydro-[1,2,4]triazolo[1,5-a]pyrimidin-6-yl)piperazin-1-yl)-2-oxoethyl)-5-hydroxy-2-methylpyrimidine-4-carboxamide], for which the IC50 in test [1] and in test [2] was less than 100 nM throughout.
With `CCNC(=NCCCN(C)C)N1CCN(c2c(CC)n(CC(=O)Nc3ccc(C(F)(F)F)cc3C)c3nc(C4=CCOCC4)nn3c2=O)CC1` [Example 5, 2-(2-(3,6-Dihydro-2H-pyran-4-yl)-6-(4-(N′-(3-(dimethylamino)propyl)-N-ethylcarbamimidoyl)piperazin-1-yl)-5-ethyl-7-oxo-[1,2,4]triazolo[1,5-a]pyrimidin-4(7H)-yl)-N-(2-methyl-4-(trifluoromethyl)phenyl)acetamide], the IC50 in test [1] and in test [2] was greater than 1000 nM in each case.
As for `CCc1c(N2CCN(C(=O)CNC(=O)c3nc(C)cs3)CC2)c(=O)n2nc(C3=CCOCC3)nc2n1CC(=O)Nc1ccc(C(F)(F)F)cc1Cl` [Example 346, N-(2-(4-(4-(2-((2-Chloro-4-(trifluoromethyl)phenyl)amino)-2-oxoethyl)-2-(3,6-dihydro-2H-pyran-4-yl)-5-ethyl-7-oxo-4,7-dihydro-[1,2,4]triazolo[1,5-a]pyrimidin-6-yl)piperazin-1-yl)-2-oxoethyl)-4-methylthiazole-2-carboxamide], the IC50 in test [1] and in test [2] was less than 100 nM each time.
